This is an account of results in patent US10179779B2, “Polymorph forms” (RaQualia Pharma Inc., priority 2012, dated 2019).

A value given as a limit tells only on which side of the number the result lay.

Common to all, as to format: physicochemical
Series [1] can be described thus: Hygroscopicity study by dynamic vapor sorption (DVS) analysis. The following applies: for weight gain %: 25° C.; for weight gain % / water absorbed: DVS; for water absorbed: under 95% RH at 25° C. The procedure:
Hygroscopicity study is performed using Surface Measurement Systems DVS-1. The sample is placed on a microbalance in the instrument and the weight change during the sorption/desorption cycle at 25° C. is monitored. One of the sorption/desorption programs consists of a sorption scan from 0 to 95% relative humidity (RH) and a desorption scan from 95 to 10% RH. The other consists of a sorption scan from 40 to 95% RH and desorption scan from 95 to 0% RH, followed by a second sorption scan from 0 to 40% RH. Both programs are carried out at 5% RH increments and the sample is allowed to equilibrate for 360 minutes or until equilibration had been attained at each step. At the end of the DVS experiment the sample is measured by PXRD.
In the hygroscopicity study by dynamic vapor sorption (DVS) analysis, both Polymorph Form III and Polymorph Form V absorb less than 1.2 wt % under 95% relative humidity (RH) at 25° C. On the other hand, the white solid disclosed in the prior art WO2006/090224 and Polymorph Form I absorb 15 wt % or 14 wt % of water under 95% RH at 25° C.

A short description of series [2]: Thermal transformation of crystal form (variable-temperature PXRD). The note with it: for temperature at which transformation to another polymorph form begins: heating, Form I to Form II, Form III to Form IV. The procedure:
The PXRD analyses are performed using a Rigaku RINT-TTR X-ray powder diffractometer using Cu-Kalpha radiation. The samples can also be measured under the high/low temperature condition by using the attachment of the variant-temperature sample holder. The instrument is equipped with a fine focus X-ray tube. The tube voltage and amperage are set to 50 kV and 300 mA respectively. The divergence and scattering slits are set at 0.5° and the receiving slit is set at 0.15 mm. Diffracted radiation is detected by a NaI scintillation detector. A theta-two theta continuous scan at 4°/min (step size 0.02°) from 3 to 40(°) 2-theta is used. A silicon standard is analyzed to check the machine alignment. Data are collected and analyzed using-Rigaku X-ray system. Samples are prepared for analysis by placing them in an aluminum sample holder that is horizontally rotated at 60 rpm during data acquisition.
4-{[4-({[4-(2,2,2-Trifluoroethoxy)-1,2-benzisoxazol-3-yl]oxy}methyl)piperidin-1-yl]methyl}-tetrahydro-2H-pyran-4-carboxylic acid Polymorph Form I (5 mg) is placed on the temperature-variable sample holder of PXRD, and the temperature of the sample holder is raised to 120° C. and kept for 10 min., then cooled down to room temperature without nitrogen flow to the sample holder to afford Polymorph Form II of 4-{[4-({[4-(2,2,2-trifluoroethoxy)-1,2-benzisoxazol-3-yl]oxy}methyl)piperidin-1-yl]methyl}-tetrahydro-2H-pyran-4-carboxylic acid. Conversion to the Polymorph Form II is confirmed by in situ monitoring of PXRD spectrum.
4-{[4-({[4-(2,2,2-Trifluoroethoxy)-1,2-benzisoxazol-3-yl]oxy}methyl)piperidin-1-yl]methyl}-tetrahydro-2H-pyran-4-carboxylic acid Polymorph Form III begins to transform to Polymorph Form IV at around 90° C. Conversion to the Polymorph Form IV is confirmed by in situ monitoring of PXRD spectrum (variable-temperature PXRD measurement).

Series [3] is described as follows: Solid-state stability study (constant temperature/humidity chamber; HPLC, PXRD). The note with it: for purity after storage: 40° C./75% RH for 6 months (rounded). The procedure:
HPLC data are obtained by Waters Alliance 2695 HPLC system with 2996 PDA detector using the following conditions; • Column: Inertsil ODS-3 (3 micrometers, 4.6×150 mm), • Eluent: acetonitrile/10 mM ammonium acetate=32:68, • Detection: UV at 215 nm, • Flow rate: 1 mL/min, and • Column temperature: 40° C.
Solid-state stability study is performed using Nagano Science Constant temperature/humidity control chamber LH-20-11 M, LH-21-11 M, LTL-200D3CJ-14 or LTX-01. […] The crystalline form, thermal behavior, purity and/or weight change of the resultant sample after the exposure or irradiation are evaluated by PXRD, TG/DTA or DSC, HPLC, microbalance, respectively.

Where [4] appears, read: 25° C./60% RH, 40° C./75% RH and/or Xenon lamp.
Where [5] appears, read: 40° C./75% RH for 1 month, HPLC.
Setting [6] is: 40° C./75% RH for 6 months, HPLC.
The mark [7] stands for this setting: storage at 40° C./75% RH for 1 month, HPLC.
The mark [8] stands for this setting: storage at 40° C./75% RH for 6 months, HPLC.

Consider `O=C(O)C1(CN2CCC(COc3noc4cccc(OCC(F)(F)F)c34)CC2)CCOCC1` [Polymorph Form I, 4-{[4-({[4-(2,2,2-trifluoroethoxy)-1,2-benzisoxazol-3-yl]oxy}methyl)piperidin-1-yl]methyl}-tetrahydro-2H-pyran-4-carboxylic acid], for which the weight gain % in series [1] (85% RH) is 0.065%; in series [1] (90% RH), 0.089%; in series [1] (95% RH) it was 14%. Besides, the water absorbed in series [1] is listed as 14 wt %. In series [2], the “temperature at which transformation to another polymorph form begins” value is “around 110 °C”. Moreover, in series [3], the “solid-state stability, comparison in words” value is “more stable than the white solid”. The “change of crystal form on storage” value in series [3] (25° C./60% RH) was “gradually transforms to Polymorph Form III”. Further, in series [3] (setting [4]), the “solid-state stability (in words)” value is given as “stable”. Moreover, the entries for the “Purity (Area %) Main peak” value in series [3] (setting [5]) and in series [3] (setting [6]) were 99.4 Area % and 95.6 Area %, respectively. Moreover, the purity after storage in series [3] worked out at 96%. Further, the “time to transformation to Polymorph Form III” value in series [3] (70° C./75% RH) is ≤ 1 days. The “Assay Remaining %” value was determined as 98% in series [3] (setting [7]) and 87% in series [3] (setting [8]).
As to `O=C(O)C1(CN2CCC(COc3noc4cccc(OCC(F)(F)F)c34)CC2)CCOCC1` [Polymorph Form II, 4-{[4-({[4-(2,2,2-trifluoroethoxy)-1,2-benzisoxazol-3-yl]oxy}methyl)piperidin-1-yl]methyl}-tetrahydro-2H-pyran-4-carboxylic acid], in series [3], the “solid-state stability, comparison in words” value is “more stable than the white solid”.
`O=C(O)C1(CN2CCC(COc3noc4cccc(OCC(F)(F)F)c34)CC2)CCOCC1` [Polymorph Form III, 4-{[4-({[4-(2,2,2-trifluoroethoxy)-1,2-benzisoxazol-3-yl]oxy}methyl)piperidin-1-yl]methyl}-tetrahydro-2H-pyran-4-carboxylic acid]: in series [1], the “hygroscopicity in comparison with the white solid of WO2006/090224” value is reported as “lower hygroscopicity”. Also, the weight gain % was found to be 0.48% in series [1] (85% RH), 0.53% in series [1] (90% RH) and 0.60% in series [1] (95% RH). For the same compound, in series [2], the “temperature at which transformation to another polymorph form begins” value was “around 90 °C”. Moreover, the “solid-state stability, comparison in words” value in series [3] is “more excellent solid-state stability than Polymorph Form I”. Besides, the “solid-state stability (in words)” value was “stable” in series [3] (setting [4]); “chemically and physically stable” in series [3] (70° C./75% RH). In addition, the entries for the “Purity (Area %) Main peak” value in series [3] (setting [5]) and in series [3] (setting [6]) were 99.7 Area % and 99.1 Area %, respectively. In addition, in series [3], the purity after storage is listed as 99%. Moreover, the share remaining in series [3] (70° C./75% RH, after 3 weeks, HPLC) amounted to 100%. In addition, the “Assay Remaining %” value in series [3] (setting [7]) turned out to be 99%; in series [3] (setting [8]) it was 97%.
With `O=C(O)C1(CN2CCC(COc3noc4cccc(OCC(F)(F)F)c34)CC2)CCOCC1` [Polymorph Form IV, 4-{[4-({[4-(2,2,2-trifluoroethoxy)-1,2-benzisoxazol-3-yl]oxy}methyl)piperidin-1-yl]methyl}-tetrahydro-2H-pyran-4-carboxylic acid], in series [2], the “temperature up to which the form is stable” value was “up to 115 °C”.
For `O=C(O)C1(CN2CCC(COc3noc4cccc(OCC(F)(F)F)c34)CC2)CCOCC1` [Polymorph Form V, 4-{[4-({[4-(2,2,2-trifluoroethoxy)-1,2-benzisoxazol-3-yl]oxy}methyl)piperidin-1-yl]methyl}-tetrahydro-2H-pyran-4-carboxylic acid], the “hygroscopicity in comparison with the white solid of WO2006/090224” value in series [1] is recorded as “lower hygroscopicity”. In addition, the figures for the weight gain % in series [1] (85% RH), in series [1] (90% RH) and in series [1] (95% RH) were 0.74%, 0.85% and 1.1%, respectively.
For `O=C(O)C1(CN2CCC(COc3noc4cccc(OCC(F)(F)F)c34)CC2)CCOCC1` [White solid disclosed in the prior art WO2006/090224] [4-{[4-({[4-(2,2,2-trifluoroethoxy)-1,2-benzisoxazol-3-yl]oxy}methyl)piperidin-1-yl]methyl}-tetrahydro-2H-pyran-4-carboxylic acid, reference compound], the weight gain % in series [1] (85% RH) is reported as 0.99%; in series [1] (90% RH), 5.3%; in series [1] (95% RH) it was 15%. In series [1], this compound had a water absorbed of 15 wt %.
